Among the data in patent US20110104081A1, “Oral Compositions for Treatment of Dry Mouth” (priority 2009, published 2011) are Water gain values, retold here.

The data set can be described thus: Water gain (moisture uptake) of treated cotton swatches. The class given is physicochemical. The following applies: dried. The method, then:
For table 2, the test method is as follows: For “no rinse”: 1×1 cm cotton swatches (triplicates) are placed into a weigh boat where each is labeled according to treatment type and number. Initial weights are recorded for each sample. 500 uL of polymer solution is applied to each cotton swatch sample then reweighed as wet weight. Samples are allowed to dry overnight at room temperature conditions. Sample weights are recorded in the following morning as “no rinse”. Samples are then placed on a tray in the incubator at 37° C., 3.3% CO2, and approximately 90% humidity (the metal tray at the bottom of the incubator has plenty of distilled water in the pan to ensure constant humidity). Opening and closing the incubator door frequently causes parameters to shift so minimizing this will ensure proper control over parameter. Samples are incubated for 8 hours then reweighed. The weights represent the moisture uptake ability for the treated samples. For “with rinse”: Following the weighing, samples are rinsed for 5 seconds in 500 g of vortexing water, and placed into respective weigh boat. Samples are dried overnight at room temperature conditions. Samples are weighed and placed in the incubator the following morning similar to above described procedure and weights are recorded as “with rinse”.

Molecules are shown by their SMILES.

Regarding `OCC(O)CO` [40% glycerin, glycerin], the Water gain reads like this: (No Rinse, incubated 8 hours at 37° C., approximately 90% humidity) 393.3 mg; (With Rinse, rinsed with water, incubated) 126.9 mg.
